From patent US20090054312A1, “SMIPs: Small molecule inhibitors of p27 depletion in cancers and other proliferative diseases” (priority 2007, published 2009) come the findings set out here.

The test deals with p27 levels in LNCaP-S14 cells. Briefly: p27 immunofluorescence screening assay in LNCaP-S14 cells. As to all read-outs here: test concentration or dose not given here. The settings on record: cell line not given; for % positive: p27-positive cells; for Z score: Table 1, standard deviations from plate mean.
Setting [1] is: Table 1, compounds showing SMIP activity in the secondary screen.

Where a name gives a salt, the structure may show the parent alone.

`O=C(CCCN1CCC2(CC1)C(=O)NCN2c1ccccc1)c1ccc(F)cc1` [Spiperone, reference compound] yielded a Z score of 20.5550. For the same molecule, the “% positive” value under setting [1] worked out at 32.90%.

In turn, `Cc1[nH]cnc1-c1ccc(C(F)(F)F)cc1` [5-methyl-4-(4-(trifluoromethyl)phenyl)-(1H)-imidazole] came in with a Z score of 2.4371. Besides, the “% positive” value under setting [1] amounted to 7.89%.

`Oc1ccc(Cl)cc1Cc1cc(Cl)ccc1O` [Dichlorophene, reference compound]: the Z score is 5.6065. Also, under setting [1], the “% positive” value is on record as 12.27%.

Regarding `CC[C@@H](C(=O)[C@@H](C)[C@@H](O)[C@H](C)[C@@H]1O[C@@H]([C@@H](CC)C(=O)O)CC[C@@H]1C)[C@H]1O[C@]2(C=C[C@@H](O)[C@]3(CC[C@@](C)([C@H]4CC[C@](O)(CC)[C@H](C)O4)O3)O2)[C@H](C)C[C@@H]1C` [Salinomycin, sodium, reference compound], the Z score was found to be 37.4159. For the same molecule, the “% positive” value ([…]) is 56.17%.

As to `CCCCCCSc1nnc(N)s1` [5-hexylsulfanyl-1,3,4-thiadiazol-2-amine], the Z score was determined as 24.6282. The “% positive” value under setting [1] is on record as 38.52%.

In turn, `CO[C@@]12[C@H](COC(N)=O)C3=C(C(=O)C(C)=C(N)C3=O)N1C[C@@H]1N[C@@H]12` [Mitomycin C, reference compound] gave a Z score of 27.5299. Further, the “% positive” value under setting [1] is reported as 42.52%.

`CC(=O)Nc1ccc(S(=O)(=O)N(Cc2ccc3c(c2)CCO3)C2CC2)cc1` [N-(4-{[cyclopropyl(2,3-dihydro-1-benzofuran-5-ylmethyl)amino]sulfonyl}phenyl)acetamide] had a Z score of 7.4706. In addition, under setting [1], the “% positive” value was determined as 14.84%.

Molecule `Cc1cccn2c(=O)c3c(nc12)CCN(C(=O)c1ccc(C(C)(C)C)cc1)C3` [2-(4-tert-butylbenzoyl)-6-methyl-1,2,3,4-tetrahydro-11H-dipyrido-[1,2-a:4′,3′-d]pyrimidin-11-one] gave a Z score of 10.7588. Under setting [1], the “% positive” value was determined as 19.38%.

`CCCCCCCCCCCCCCCC[N+](C)(C)CCN(Cc1ccc(OC)cc1)c1ncccn1` [Thonzonium, reference compound] gave a Z score of 3.7078. The “% positive” value under setting [1] amounted to 9.65%.

Regarding `COc1ccc(S(=O)(=O)Nc2cccc3cc(C(=O)NCc4ccc(Cl)cc4)[nH]c23)cc1` [N-(4-chlorobenzyl)-7-[((4-methoxyphenyl)sulfonyl)amino]-(1H)-indole-2-carboxamide], the Z score amounted to 4.9019. Further, under setting [1], the “% positive” value came out at 11.30%.

In turn, `CC1=CC(=O)c2ccccc2C1=O` [Menadione, reference compound] showed a Z score of 24.4943. Moreover, the “% positive” value under setting [1] worked out at 38.33%.

As to `Clc1ccc(CSC(Cn2ccnc2)c2ccc(Cl)cc2Cl)cc1` (stereo not shown) [Sulconazole nitrate, reference compound], the Z score is 11.0719. The “% positive” value under setting [1] amounted to 19.81%.

Molecule `CN(C)CC/C=C1/c2ccccc2Sc2ccc(Cl)cc21` [Chlorprothixene hydrochloride, reference compound] gave a Z score of 2.1477. Moreover, under setting [1], the “% positive” value is recorded as 7.49%.

As for `OCCN1CCN(CCCN2c3ccccc3Sc3ccc(Cl)cc32)CC1` [Perphenazine, reference compound], the Z score is listed as 5.4640. For the same molecule, the “% positive” value under setting [1] is listed as 12.07%.

In turn, `CSc1ccc2c(c1)C(N1CCN(C)CC1)Cc1ccccc1S2.O=C(O)/C=C\C(=O)O` (stereo not shown) [Methiothepin maleate, reference compound] registered a Z score of 3.2976. For the same molecule, the “% positive” value under setting [1] is 9.08%.

Molecule `O=c1c(C(F)(F)F)cccn1CCc1nc(-c2ccccc2)cs1` [1-[2-(4-phenyl-1,3-thiazol-2-yl)ethyl]-3-(trifluoromethyl)pyridin-2(1H)-one] had a Z score of 4.1344. The “% positive” value under setting [1] amounted to 10.24%.

In the case of `C[n+]1cc2c3c(ccc2c2ccc4cc5c(cc4c21)OCO5)OCO3` [Sanguinarine nitrate, reference compound], the Z score came out at 11.4629. Moreover, where the note is “[…]”, the “% positive” value stood at 20.35%.

As to `O=C(CSC1=NNC(c2ccccn2)S1)c1cccc(F)c1` (stereo not shown) [1-(3-fluorophenyl)-2-[(5-pyridin-2-yl-4,5-dihydro-1,3,4-thiadiazol-2-yl)sulfanyl]ethanone], the Z score turned out to be 15.1024. For the same molecule, under setting [1], the “% positive” value stood at 25.37%.

Turning to `CS(=O)(=O)c1ccc(/C=C/C(=O)Nc2cccc(C(F)(F)F)c2)cc1` [3-[4-(methylsulfonyl)phenyl]-N-[3-trifluoromethyl]phenyl]-(2E)-propenamide], the Z score is reported as 26.8318. In addition, the “% positive” value under setting [1] was determined as 41.56%.

As for `O=C(Nc1ccccc1)Nc1ccc(SCc2nc(OCC(F)(F)F)cc(OCC(F)(F)F)n2)cc1` [N-[4-[[[4,6-bis(2,2,2-trifluoroethoxy)pyrimidin-2-yl]methyl]thio]phenyl]-N′′-phenylurea], the Z score is on record as 25.1654. Further, the “% positive” value under setting [1] is 39.26%.

The molecule `CC[C@@H](C(=O)[C@@H](C)[C@@H](O)[C@H](C)CCc1ccc(C)c(O)c1C(=O)O)[C@H]1O[C@](CC)([C@H]2CC[C@](O)(CC)[C@H](C)O2)C[C@@H]1C` [Lasalocid sodium, reference compound] came in with a Z score of 29.4743. The “% positive” value under setting [1] is given as 45.21%.

As to `O=C1C=C2C=C[C@@H]3C[C@@]2(O1)[C@H]1CCCCN31` [Securinine, reference compound], the Z score is on record as 7.6953. The “% positive” value ([…]) was determined as 15.15%.

On to `O=C(OCn1ncc(Cl)c(Cl)c1=O)c1ccc(C(F)(F)F)cc1` [(4,5-dichloro-6-oxo-pyridazin-1-yl)methyl-4-(trifluoromethyl)benzoate], for which the Z score was found to be 21.2964. Further, the “% positive” value under setting [1] stood at 33.92%.

As to `CN(C)c1ccc(O)c2c1C[C@H]1C[C@H]3[C@H](N(C)C)C(O)=C(C(N)=O)C(=O)[C@@]3(O)C(O)=C1C2=O` [Minocycline hydrochloride, reference compound], the Z score was found to be 30.1696. The “% positive” value under setting [1] came to 46.17%.

For `O=C1C(Cl)=C(N2CCC(C(=O)N3CCOCC3)CC2)C(=O)c2ccccc21` [3-chloro-2-[4-(morpholine-4-carbonyl)-1-piperidyl]naphthalene-1,4-dione], the Z score came to 5.7130. Besides, under setting [1], the “% positive” value was determined as 12.42%.

The molecule `COc1cc([C@@H]2c3cc4c(cc3[C@@H](O[C@@H]3O[C@@H]5CO[C@@H](C)O[C@H]5[C@H](O)[C@H]3O)[C@H]3COC(=O)[C@H]23)OCO4)cc(OC)c1O` [Etoposide, reference compound] had a Z score of 25.6406. Also, the “% positive” value under setting [1] came to 39.92%.

`CC(C)(C)c1cc2cc(NS(=O)(=O)c3ccc(Cl)cc3)ccc2[nH]1` [N-(2-tert-butyl-(1H)-indol-5-yl)-4-chlorobenzenesulfonamide] had a Z score of 23.8290. For the same molecule, the “% positive” value under setting [1] is reported as 37.42%.

As for `CC[C@@]1(O)C(=O)OCc2c1cc1n(c2=O)Cc2cc3ccccc3nc2-1` [Camptothecin, reference compound], the Z score came to 23.6514. Also, the “% positive” value under setting [1] is 37.17%.

Molecule “Oligomycin A [Oligomycin A (mix of A, B, C), reference compound]” displayed a Z score of 16.0298. Under setting [1], the “% positive” value was 26.65%.

`Nc1ncn([C@@H]2O[C@H](CO)[C@@H](O)[C@H]2O)c(=O)n1` [5-Azacytidine, reference compound] displayed a Z score of 4.5963. The “% positive” value under setting [1] came to 10.87%.

For the molecule `Cc1cc(C2CCCCC2)n(O)c(=O)c1` [Ciclopirox olamine, reference compound], the Z score is given as 17.3996. Besides, the “% positive” value under setting [1] worked out at 28.54%.

For `C=C(NC(=O)C(=C)NC(=O)c1csc(C2=N[C@@H]3c4csc(n4)[C@H]4NC(=O)c5csc(n5)[C@H]([C@](C)(O)[C@@H](C)O)NC(=O)[C@H]5CSC(=N5)/C(=C/C)NC(=O)[C@H]([C@@H](C)O)NC(=O)c5csc(n5)[C@]3(CC2)NC(=O)[C@H](C)NC(=O)C(=C)NC(=O)[C@H](C)NC(=O)[C@H]([C@@H](C)CC)N[C@@H]2C=Cc3c([C@H](C)O)cc(nc3[C@H]2O)C(=O)O[C@@H]4C)n1)C(N)=O` [Thiostrepton, reference compound], the Z score is recorded as 7.6485. The “% positive” value under setting [1] is on record as 15.09%.

As to `Cc1cc2c(C(C)C)c(O)c(O)c(C=O)c2c(O)c1-c1c(C)cc2c(C(C)C)c(O)c(O)c(C=O)c2c1O` [Gossypol, reference compound], the Z score is listed as 3.1932. Also, the “% positive” value ([…]) came to 8.94%.

Turning to `C=C(CC)C(=O)c1ccc(OCC(=O)O)c(Cl)c1Cl` [Ethacrynic acid, reference compound], the Z score was 10.2724. Moreover, the “% positive” value under setting [1] is 18.71%.

For `CO[C@@H]1C[C@@H](C[C@H]2CC[C@H](C)[C@H]([C@@H](C)C(=O)O)O2)O[C@]2(O[C@](C)([C@H]3CC[C@@](C)([C@@H]4O[C@@H]([C@H]5O[C@@](O)(CO)[C@H](C)C[C@@H]5C)C[C@@H]4C)O3)C[C@H]2C)[C@@H]1C` [Nigericin sodium, reference compound], the Z score is given as 22.1153. Also, under setting [1], the “% positive” value is reported as 35.05%.

Regarding `Cc1cc(N)c2ccccc2[n+]1CCCCCCCCCC[n+]1c(C)cc(N)c2ccccc21` [Dequalinium chloride, reference compound], the Z score turned out to be 18.6318. In addition, the “% positive” value under setting [1] turned out to be 30.24%.

`O=C(OCn1ncc(Cl)c(Cl)c1=O)c1cccc(C(F)(F)F)c1` [(4,5-dichloro-6-oxopyridazin-1(6H)-yl)methyl-3-(trifluoromethyl)benzoate] displayed a Z score of 3.0023. Under setting [1], the “% positive” value was determined as 8.67%.

The molecule `COc1ccc(CCN2CCC(Nc3nc4ccccc4n3Cc3ccc(F)cc3)CC2)cc1` [Astemizole, reference compound] returned a Z score of 2.0598. Moreover, under setting [1], the “% positive” value worked out at 7.37%.
